Experiments:
[1] = biological target: T1, N-type calcium channel (NTCC) (Homo sapiens, UniProt Q00975); experiment: FLIPR calcium mobilization assay for N-type calcium channel; format: cell-based; settings: calcium mobilization in vitro assay; differentiated IMR32 cells
T1 construct: host or cells: IMR32 cells differentiated with dibutyryl cAMP and bromodeoxyuridine
Outline: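 Differentiated IMR32 cells (8 days, dibutyryl cAMP and BrdU) loaded with 3 μM Fluo-4 during 90 mM KCl pre-stimulation, with compound at about 846 pM to 17 μM plus 5 μM nitrendipine. After washes in compound, FLIPR read basal fluorescence 315 s, then 45 s after KCl addition (final 90 mM).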

[2] = biological target: T2, recombinant rat L-type calcium channel (LTCC) subunits (α1c, α2δ, and β1) (Rattus norvegicus, UniProt P22002); experiment: FLIPR calcium mobilization assay for L-type calcium channel; format: cell-based; settings: calcium mobilization in vitro assay; HEK293 cells expressing rat LTCC
T2 construct: expressed in transfected cells
Outline: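 HEK293 cells stably expressing rat LTCC (α1c, α2δ, β1), Fluo-4 loaded in pH 7.4 buffer with 5 mM CaCl2. Compound (about 846 pM to 17 μM final) applied 5 minutes before depolarization with 90 mM KCl final; FLIPR fluorescence recorded throughout.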

T1 sequence (Q00975 whole entry): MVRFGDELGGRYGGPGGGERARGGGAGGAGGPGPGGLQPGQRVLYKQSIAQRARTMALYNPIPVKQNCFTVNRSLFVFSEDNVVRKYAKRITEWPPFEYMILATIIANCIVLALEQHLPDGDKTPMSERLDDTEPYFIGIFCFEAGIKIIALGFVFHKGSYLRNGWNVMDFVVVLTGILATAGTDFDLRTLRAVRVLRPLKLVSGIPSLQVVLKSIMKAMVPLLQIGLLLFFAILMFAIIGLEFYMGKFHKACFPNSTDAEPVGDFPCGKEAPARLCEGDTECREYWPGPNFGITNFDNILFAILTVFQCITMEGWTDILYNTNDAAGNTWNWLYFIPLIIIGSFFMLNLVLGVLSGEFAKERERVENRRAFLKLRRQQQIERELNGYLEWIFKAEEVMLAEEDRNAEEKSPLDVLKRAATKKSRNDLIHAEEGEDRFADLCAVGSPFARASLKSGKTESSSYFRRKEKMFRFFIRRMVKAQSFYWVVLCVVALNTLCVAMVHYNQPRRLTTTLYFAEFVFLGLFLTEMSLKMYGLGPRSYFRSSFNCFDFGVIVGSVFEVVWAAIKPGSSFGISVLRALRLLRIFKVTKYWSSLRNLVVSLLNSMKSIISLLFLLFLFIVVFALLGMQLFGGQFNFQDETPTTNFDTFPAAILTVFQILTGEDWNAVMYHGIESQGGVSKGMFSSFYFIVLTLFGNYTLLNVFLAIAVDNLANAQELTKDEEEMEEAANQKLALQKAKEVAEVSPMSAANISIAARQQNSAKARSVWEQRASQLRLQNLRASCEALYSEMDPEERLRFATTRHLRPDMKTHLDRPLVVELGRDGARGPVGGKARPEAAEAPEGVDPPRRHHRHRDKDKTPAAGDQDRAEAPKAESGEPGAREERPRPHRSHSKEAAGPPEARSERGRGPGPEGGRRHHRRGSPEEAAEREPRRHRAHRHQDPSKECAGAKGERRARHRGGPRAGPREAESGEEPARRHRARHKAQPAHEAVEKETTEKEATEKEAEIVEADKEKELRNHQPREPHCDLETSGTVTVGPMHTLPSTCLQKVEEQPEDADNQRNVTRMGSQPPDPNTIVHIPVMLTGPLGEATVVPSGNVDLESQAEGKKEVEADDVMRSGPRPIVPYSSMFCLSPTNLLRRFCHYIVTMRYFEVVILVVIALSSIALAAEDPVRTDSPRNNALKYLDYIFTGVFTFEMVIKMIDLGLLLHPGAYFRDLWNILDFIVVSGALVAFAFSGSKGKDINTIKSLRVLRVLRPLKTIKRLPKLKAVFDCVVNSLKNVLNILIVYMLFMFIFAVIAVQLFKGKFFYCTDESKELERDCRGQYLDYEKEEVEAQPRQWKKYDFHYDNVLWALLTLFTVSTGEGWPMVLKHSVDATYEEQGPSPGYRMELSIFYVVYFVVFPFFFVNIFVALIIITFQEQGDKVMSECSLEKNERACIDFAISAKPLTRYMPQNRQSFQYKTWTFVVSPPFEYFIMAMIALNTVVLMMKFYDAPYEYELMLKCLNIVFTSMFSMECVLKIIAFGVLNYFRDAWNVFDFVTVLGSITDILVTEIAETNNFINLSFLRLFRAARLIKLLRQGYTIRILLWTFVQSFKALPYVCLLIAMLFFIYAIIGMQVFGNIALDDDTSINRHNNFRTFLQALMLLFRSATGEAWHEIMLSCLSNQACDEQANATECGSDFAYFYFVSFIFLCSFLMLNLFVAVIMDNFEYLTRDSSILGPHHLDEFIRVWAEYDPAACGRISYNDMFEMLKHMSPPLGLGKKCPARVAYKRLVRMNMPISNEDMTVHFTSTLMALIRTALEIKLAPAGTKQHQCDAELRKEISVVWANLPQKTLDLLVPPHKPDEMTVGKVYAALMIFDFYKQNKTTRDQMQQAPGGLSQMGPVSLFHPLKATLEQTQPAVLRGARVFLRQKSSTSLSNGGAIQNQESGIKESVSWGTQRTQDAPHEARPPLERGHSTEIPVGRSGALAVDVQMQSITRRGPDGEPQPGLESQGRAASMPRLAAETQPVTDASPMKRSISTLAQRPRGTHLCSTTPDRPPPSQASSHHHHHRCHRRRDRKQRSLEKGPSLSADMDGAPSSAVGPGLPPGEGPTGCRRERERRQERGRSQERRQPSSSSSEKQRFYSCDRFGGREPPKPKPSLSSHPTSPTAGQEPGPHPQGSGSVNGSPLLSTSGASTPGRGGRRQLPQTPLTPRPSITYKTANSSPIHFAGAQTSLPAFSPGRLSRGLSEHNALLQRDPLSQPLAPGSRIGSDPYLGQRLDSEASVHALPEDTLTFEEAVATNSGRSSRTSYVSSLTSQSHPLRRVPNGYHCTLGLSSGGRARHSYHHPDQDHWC
T1 sequence (P54289 25-956 partner limits assumed): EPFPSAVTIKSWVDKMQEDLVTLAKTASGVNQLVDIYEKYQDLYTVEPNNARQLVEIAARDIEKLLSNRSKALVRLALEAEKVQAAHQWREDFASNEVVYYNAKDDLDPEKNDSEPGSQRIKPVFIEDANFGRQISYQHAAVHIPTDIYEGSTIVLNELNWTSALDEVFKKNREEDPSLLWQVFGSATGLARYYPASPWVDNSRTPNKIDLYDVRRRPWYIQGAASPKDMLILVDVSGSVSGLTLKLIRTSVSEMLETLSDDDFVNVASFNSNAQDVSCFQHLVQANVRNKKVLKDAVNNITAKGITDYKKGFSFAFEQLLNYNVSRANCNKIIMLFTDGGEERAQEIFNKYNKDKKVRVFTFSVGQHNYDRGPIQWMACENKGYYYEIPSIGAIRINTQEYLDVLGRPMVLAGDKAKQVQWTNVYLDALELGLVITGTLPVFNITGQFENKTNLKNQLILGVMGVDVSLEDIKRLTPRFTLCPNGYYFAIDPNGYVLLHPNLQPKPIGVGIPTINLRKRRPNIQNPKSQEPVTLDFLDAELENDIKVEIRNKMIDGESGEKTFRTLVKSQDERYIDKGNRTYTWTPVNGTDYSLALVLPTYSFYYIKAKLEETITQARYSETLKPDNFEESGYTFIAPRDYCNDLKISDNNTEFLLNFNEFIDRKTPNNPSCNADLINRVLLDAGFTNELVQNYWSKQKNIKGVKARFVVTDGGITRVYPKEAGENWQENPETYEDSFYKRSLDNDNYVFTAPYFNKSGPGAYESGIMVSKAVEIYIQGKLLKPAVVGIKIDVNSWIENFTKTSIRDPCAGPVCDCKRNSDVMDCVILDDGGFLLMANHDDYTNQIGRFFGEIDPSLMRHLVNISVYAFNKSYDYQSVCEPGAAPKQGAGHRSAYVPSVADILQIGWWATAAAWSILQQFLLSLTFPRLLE
T1 sequence (P54289 957-1103 partner limits assumed): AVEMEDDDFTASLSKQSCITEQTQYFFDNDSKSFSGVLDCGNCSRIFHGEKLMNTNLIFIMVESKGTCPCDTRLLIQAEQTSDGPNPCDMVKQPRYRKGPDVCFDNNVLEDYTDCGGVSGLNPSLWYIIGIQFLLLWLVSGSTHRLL
T1 sequence (P54284 whole entry partner): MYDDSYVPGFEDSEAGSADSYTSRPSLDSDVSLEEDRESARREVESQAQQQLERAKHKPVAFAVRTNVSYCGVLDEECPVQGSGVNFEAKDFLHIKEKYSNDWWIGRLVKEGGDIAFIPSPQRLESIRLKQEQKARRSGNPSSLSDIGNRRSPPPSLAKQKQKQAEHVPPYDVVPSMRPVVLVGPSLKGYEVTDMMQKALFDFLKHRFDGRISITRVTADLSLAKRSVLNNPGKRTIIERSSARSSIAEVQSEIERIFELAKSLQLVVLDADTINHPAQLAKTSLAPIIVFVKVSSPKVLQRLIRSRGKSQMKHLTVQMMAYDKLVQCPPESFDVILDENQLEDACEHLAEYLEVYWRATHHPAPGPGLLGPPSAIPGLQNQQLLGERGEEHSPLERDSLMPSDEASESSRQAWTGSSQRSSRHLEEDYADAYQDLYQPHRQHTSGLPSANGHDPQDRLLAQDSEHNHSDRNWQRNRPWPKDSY

Row | Structure (SMILES) | IC50 [1] | IC50 [2]
1 | CC(C)N(C1CCN(C(=O)CCNc2ccc(F)c(F)c2)CC1)S(=O)(=O)c1cccc(C(F)(F)F)c1 [N-{1-[3-(3,4-difluoro-phenylamino)-propionyl]-piperidin-4-yl}-N-isopropyl-3-trifluoromethyl-benzenesulfonamide] | 390 nM | > 20000 nM
2 | COc1cc(NCCC(=O)N2CCC(N(C(C)C)S(=O)(=O)c3cccc(C(F)(F)F)c3)CC2)cc(OC)c1 [N-{1-[3-(3,5-dimethoxy-phenylamino)-propionyl]-piperidin-4-yl}-N-isopropyl-3-trifluoromethyl-benzenesulfonamide] | 820 nM | > 20000 nM
3 | CC(C)N(C1CCN(C(=O)CCNc2cccc(Cl)c2)CC1)S(=O)(=O)c1cccc(C(F)(F)F)c1 [N-{1-[3-(3-chloro-phenylamino)-propionyl]-piperidin-4-yl}-N-isopropyl-3-trifluoromethyl-benzenesulfonamide] | 900 nM | > 20000 nM

Second part, the compound after the results:

Row | IC50 [1] | IC50 [2] | Structure (SMILES)
4 | 930 nM | > 20000 nM | CC(C)N(C1CCN(C(=O)CCNc2ccc(Cl)cc2)CC1)S(=O)(=O)c1cccc(C(F)(F)F)c1 [N-{1-[3-(4-chloro-phenylamino)-propionyl]-piperidin-4-yl}-N-isopropyl-3-trifluoromethyl-benzenesulfonamide]
5 | 620 nM | > 20000 nM | COc1cc(NCCC(=O)N2CCC(N(C(C)C)S(=O)(=O)c3cccc(C(F)(F)F)c3)CC2)ccc1F [N-{1-[3-(4-fluoro-3-methoxy-phenylamino)-propionyl]-piperidin-4-yl}-N-isopropyl-3-trifluoromethyl-benzenesulfonamide]
6 | 530 nM | 3220 nM | CC(C)N(C1CCN(C(=O)CCNc2ccc(F)cc2)CC1)S(=O)(=O)c1cccc(C(F)(F)F)c1 [N-{1-[3-(4-fluoro-phenylamino)-propionyl]-piperidin-4-yl}-N-isopropyl-3-trifluoromethyl-benzenesulfonamide]
7 | 420 nM | 7480 nM | CC(C)N(C1CCN(C(=O)CCN(C)Cc2ccccc2)CC1)S(=O)(=O)c1cccc(C(F)(F)F)c1 [N-{1-[3-(benzyl-methyl-amino)-propionyl]-piperidin-4-yl}-N-isopropyl-3-trifluoromethyl-benzenesulfonamide]
